# Measurements taken from PubChem BioAssay (NCI).
#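 Briefly, cells in 96-well plates were exposed to five compound concentrations for 48 h, and endpoints were estimated by linear interpolation. The concentration for 50% growth inhibition is given as GI50. Definition used: TGI = concentration required for complete inhibition of growth.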
# Legend:
# Assay in all cases: NCI anticancer screen, dose series, 48 h
# 786-0 renal = tested on: 786-0 renal
# DLD-1 colon = tested on: DLD-1 colon
# DMS 114 small cell lung = tested on: DMS 114 small cell lung
# DMS 273 small cell lung = tested on: DMS 273 small cell lung
# HOP-18 NSCLC = tested on: HOP-18 NSCLC
# KM20L2 colon = tested on: KM20L2 colon
# LXFL 529 NSCLC = tested on: LXFL 529 NSCLC
# M19-MEL melanoma = tested on: M19-MEL melanoma
# NCI-H226 lung = tested on: NCI-H226 lung
# SNB-78 CNS = tested on: SNB-78 CNS
# XF 498 CNS = tested on: XF 498 CNS
# NCI/ADR-RES ovarian = tested on: NCI/ADR-RES ovarian
# RXF-631 renal = tested on: RXF-631 renal
smiles,measurement,setting,value
CC(N)C(=O)OCN1C(=O)C2C3C=CC(C2C1=O)C1C2C(=O)N(COC(=O)C(C)N)C(=O)C2C31 (stereo unspecified),TGI,786-0 renal,37.6 µM
same,TGI,DLD-1 colon,54.4 µM
same,TGI,DMS 114 small cell lung,36.5 µM
same,TGI,DMS 273 small cell lung,36.7 µM
same,TGI,HOP-18 NSCLC,> 100 µM
same,TGI,KM20L2 colon,72.2 µM
same,TGI,LXFL 529 NSCLC,60.8 µM
same,TGI,M19-MEL melanoma,40 µM
same,TGI,NCI-H226 lung,> 100 µM
same,TGI,SNB-78 CNS,> 100 µM
same,TGI,XF 498 CNS,47.5 µM
CNC1C(O)C(NC)C2OC3(O)C(=O)CC(C)OC3OC2C1O (stereo unspecified),TGI,786-0 renal,> 100 µM
same,TGI,NCI-H226 lung,> 100 µM
same,TGI,NCI/ADR-RES ovarian,> 100 µM
C1CCC(OCc2nnn3c2CCC3)OC1 (stereo unspecified),TGI,DLD-1 colon,> 100 µM
same,TGI,KM20L2 colon,> 100 µM
same,TGI,LXFL 529 NSCLC,> 100 µM
same,TGI,M19-MEL melanoma,> 100 µM
same,TGI,SNB-78 CNS,> 100 µM
same,TGI,XF 498 CNS,> 100 µM
CCCCC(C(=O)N/N=C/c1ccc([N+](=O)[O-])o1)C(=O)N/N=C/c1ccc([N+](=O)[O-])o1,TGI,786-0 renal,5.5 µM
same,TGI,NCI-H226 lung,5.1 µM
same,TGI,NCI/ADR-RES ovarian,5.91 µM
Cc1nc2c(O)cc3c4c(=O)n(C)c(=O)n(C)c4n(Cc4ccccc4)c3c2nc1C,TGI,786-0 renal,32.8 µM
same,TGI,NCI-H226 lung,55.3 µM
same,TGI,NCI/ADR-RES ovarian,74.9 µM
Cc1cccc(O)c1-c1nnc(CCCCCCCCc2nnc(-c3c(C)cccc3O)n2N)n1N,TGI,NCI-H226 lung,> 100 µM
CO[C@H]1ON=C(c2c(C)cc(C)cc2C)[C@@H]1C1(c2ccccc2)ON=C(c2c(C)cc(C)cc2C)O1 (stereo partly specified),TGI,DLD-1 colon,> 100 µM
same,TGI,DMS 273 small cell lung,> 100 µM
same,TGI,HOP-18 NSCLC,> 100 µM
same,TGI,KM20L2 colon,> 100 µM
same,TGI,LXFL 529 NSCLC,> 100 µM
same,TGI,M19-MEL melanoma,> 100 µM
same,TGI,SNB-78 CNS,> 100 µM
[O-]c1c[n+](CCCC[n+]2cc([O-])on2)no1,TGI,786-0 renal,> 100 µM
same,TGI,NCI/ADR-RES ovarian,> 100 µM
C=C1C(=O)OC2/C=C(\C)C3OC3/C=C(/C(=O)OC)C(O)C(OC(=O)C3(C)OC3C)C12 (stereo unspecified),TGI,786-0 renal,3.26 µM
same,TGI,DLD-1 colon,2.94 µM
same,TGI,DMS 114 small cell lung,1.94 µM
same,TGI,DMS 273 small cell lung,3.02 µM
same,TGI,LXFL 529 NSCLC,2.8 µM
same,TGI,NCI-H226 lung,32.2 µM
same,TGI,SNB-78 CNS,3.97 µM
COc1ccc(CC2c3cc(OC)c(OC)c(OC)c3CC[N+]2(C)C)cc1Oc1ccc(CC2c3cc4c(c(OC)c3CC[N+]2(C)C)OCO4)cc1 (stereo unspecified),TGI,786-0 renal,> 100 µM
same,TGI,NCI-H226 lung,> 100 µM
same,TGI,NCI/ADR-RES ovarian,> 100 µM
CC(C)OC(=O)Nc1cccc(Cl)c1,TGI,786-0 renal,> 100 µM
same,TGI,NCI-H226 lung,> 100 µM
same,TGI,NCI/ADR-RES ovarian,> 100 µM
Cn1cc(-c2csc(-c3cn(C)c4ccc(Br)cc34)n2)c2cnccc21,GI50,NCI/ADR-RES ovarian,2.07 µM
same,TGI,NCI/ADR-RES ovarian,3.91 µM
Cc1ccc(S(=O)(=O)N2c3ccccc3[C@H]3CCc4c([nH]c5ccccc45)[C@H]32)cc1,TGI,NCI-H226 lung,> 100 µM
same,TGI,NCI/ADR-RES ovarian,> 100 µM
C[C@H]1C(=O)O[C@@H]1[C@H]1COC(C)(C)O1,TGI,NCI-H226 lung,> 100 µM
same,TGI,NCI/ADR-RES ovarian,> 100 µM
CCN1CCN(c2nc3ccccc3nc2C(=O)c2ccc(OC)cc2)CC1,TGI,786-0 renal,64.8 µM
same,TGI,NCI/ADR-RES ovarian,> 100 µM
COC(=O)C(=O)C(C(=O)C1=NS(=O)(=O)c2cc(S(N)(=O)=O)c(Cl)cc2N1)c1nc2ccc(C(=O)c3ccccc3)cc2[nH]c1=O (stereo unspecified),TGI,786-0 renal,> 100 µM
same,TGI,DMS 273 small cell lung,> 100 µM
same,TGI,HOP-18 NSCLC,> 100 µM
same,TGI,KM20L2 colon,> 100 µM
same,TGI,LXFL 529 NSCLC,> 100 µM
same,TGI,M19-MEL melanoma,> 100 µM
same,TGI,NCI-H226 lung,> 100 µM
same,TGI,RXF-631 renal,> 100 µM
same,TGI,SNB-78 CNS,> 100 µM
same,TGI,XF 498 CNS,> 100 µM
CN1C(=O)CN2C(Cl)(Cl)C2(c2ccccc2F)c2cc([N+](=O)[O-])ccc21 (stereo unspecified),TGI,DLD-1 colon,> 100 µM
same,TGI,DMS 114 small cell lung,> 100 µM
same,TGI,DMS 273 small cell lung,> 100 µM
same,TGI,KM20L2 colon,> 100 µM
same,TGI,LXFL 529 NSCLC,> 100 µM
same,TGI,M19-MEL melanoma,> 100 µM
same,TGI,NCI-H226 lung,92.5 µM
c1ccc(CSC2(SCc3ccccc3)CCCC2)cc1,TGI,NCI-H226 lung,> 10 µM
same,TGI,NCI/ADR-RES ovarian,> 10 µM
Cc1cc(S(=O)(=O)NC(=C(C#N)C#N)[n+]2ccc(N(C)C)cc2)c([S-])cc1Cl,TGI,786-0 renal,> 100 µM
same,TGI,NCI-H226 lung,> 100 µM
same,TGI,NCI/ADR-RES ovarian,> 100 µM
NC(=O)c1ccc(NS(=O)(=O)c2ccc(N)cc2)nc1,TGI,786-0 renal,> 100 µM
same,TGI,NCI-H226 lung,> 100 µM
same,TGI,NCI/ADR-RES ovarian,> 100 µM
Nc1nc(Cl)cc(NCCCNc2cc(Cl)nc(N)n2)n1,TGI,DLD-1 colon,> 100 µM
same,TGI,DMS 114 small cell lung,> 100 µM
same,TGI,DMS 273 small cell lung,> 100 µM
same,TGI,HOP-18 NSCLC,> 100 µM
same,TGI,KM20L2 colon,> 100 µM
same,TGI,LXFL 529 NSCLC,> 100 µM
same,TGI,M19-MEL melanoma,> 100 µM
same,TGI,NCI-H226 lung,> 100 µM
same,TGI,RXF-631 renal,> 100 µM
same,TGI,XF 498 CNS,> 100 µM
Cc1ccccc1[P+](C)(c1ccccc1C)c1ccccc1C,TGI,786-0 renal,93.7 µM
same,TGI,NCI-H226 lung,35.7 µM
same,TGI,NCI/ADR-RES ovarian,58.8 µM
CN(C)CCCNC(=O)c1cc(NC(=O)c2cc(NS(=O)(=O)c3ccc4c(c3)C(=O)c3ccccc3C4=O)cn2C)cn1C,TGI,786-0 renal,> 100 µM
same,TGI,NCI-H226 lung,> 100 µM
same,TGI,NCI/ADR-RES ovarian,> 100 µM
CC1=C(C#N)C23C(=O)c4ccccc4C(O)=C2C(=O)C=CC3(O)N1 (stereo unspecified),TGI,786-0 renal,28.1 µM
same,TGI,NCI-H226 lung,32 µM
same,TGI,NCI/ADR-RES ovarian,> 100 µM
